Molecular target: T1, WIZ protein (HiBit-WIZ fusion protein) (Homo sapiens, UniProt O95785+Q96SW2)
T1 construct: expressed in transfected cells
Test: Quantification of WIZ protein levels in HiBit tag fusion protein assay (WIZ HiBit assay in 293T cells)
Type: cell-based
Conditions: for Dmax at 25 µM / remaining activity at 25 µM: HEK-293T, 293T cells; for Dmax at 25 µM: 100 − Amax, read-out: % degradation of WIZ (100 − Amax); for remaining activity at 25 µM: DMSO-normalized, curve-fitted percentage of WIZ-HiBit remaining at 25 uM, read-out: WIZ Amax; for DC50: WIZ HiBit assay in 293T cells, 10-point, 5-fold dose response, highest concentration 25 μM, about 18 hours, read-out: WIZ AC50
Procedure, shortened: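 HiBit-tagged WIZ (N-terminal tag, HSVTK promoter) stably expressed single-copy in 293T cells; 10-point 1:5 compound series, top 25 μM, ~18 h at 37 °C. Lytic HiBit/LgBit luminescence read; Amax = curve-fitted % WIZ-HiBit remaining at 25 μM, DMSO normalized to 100%.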

T1 sequence (O95785 whole entry, the tested form may be a part): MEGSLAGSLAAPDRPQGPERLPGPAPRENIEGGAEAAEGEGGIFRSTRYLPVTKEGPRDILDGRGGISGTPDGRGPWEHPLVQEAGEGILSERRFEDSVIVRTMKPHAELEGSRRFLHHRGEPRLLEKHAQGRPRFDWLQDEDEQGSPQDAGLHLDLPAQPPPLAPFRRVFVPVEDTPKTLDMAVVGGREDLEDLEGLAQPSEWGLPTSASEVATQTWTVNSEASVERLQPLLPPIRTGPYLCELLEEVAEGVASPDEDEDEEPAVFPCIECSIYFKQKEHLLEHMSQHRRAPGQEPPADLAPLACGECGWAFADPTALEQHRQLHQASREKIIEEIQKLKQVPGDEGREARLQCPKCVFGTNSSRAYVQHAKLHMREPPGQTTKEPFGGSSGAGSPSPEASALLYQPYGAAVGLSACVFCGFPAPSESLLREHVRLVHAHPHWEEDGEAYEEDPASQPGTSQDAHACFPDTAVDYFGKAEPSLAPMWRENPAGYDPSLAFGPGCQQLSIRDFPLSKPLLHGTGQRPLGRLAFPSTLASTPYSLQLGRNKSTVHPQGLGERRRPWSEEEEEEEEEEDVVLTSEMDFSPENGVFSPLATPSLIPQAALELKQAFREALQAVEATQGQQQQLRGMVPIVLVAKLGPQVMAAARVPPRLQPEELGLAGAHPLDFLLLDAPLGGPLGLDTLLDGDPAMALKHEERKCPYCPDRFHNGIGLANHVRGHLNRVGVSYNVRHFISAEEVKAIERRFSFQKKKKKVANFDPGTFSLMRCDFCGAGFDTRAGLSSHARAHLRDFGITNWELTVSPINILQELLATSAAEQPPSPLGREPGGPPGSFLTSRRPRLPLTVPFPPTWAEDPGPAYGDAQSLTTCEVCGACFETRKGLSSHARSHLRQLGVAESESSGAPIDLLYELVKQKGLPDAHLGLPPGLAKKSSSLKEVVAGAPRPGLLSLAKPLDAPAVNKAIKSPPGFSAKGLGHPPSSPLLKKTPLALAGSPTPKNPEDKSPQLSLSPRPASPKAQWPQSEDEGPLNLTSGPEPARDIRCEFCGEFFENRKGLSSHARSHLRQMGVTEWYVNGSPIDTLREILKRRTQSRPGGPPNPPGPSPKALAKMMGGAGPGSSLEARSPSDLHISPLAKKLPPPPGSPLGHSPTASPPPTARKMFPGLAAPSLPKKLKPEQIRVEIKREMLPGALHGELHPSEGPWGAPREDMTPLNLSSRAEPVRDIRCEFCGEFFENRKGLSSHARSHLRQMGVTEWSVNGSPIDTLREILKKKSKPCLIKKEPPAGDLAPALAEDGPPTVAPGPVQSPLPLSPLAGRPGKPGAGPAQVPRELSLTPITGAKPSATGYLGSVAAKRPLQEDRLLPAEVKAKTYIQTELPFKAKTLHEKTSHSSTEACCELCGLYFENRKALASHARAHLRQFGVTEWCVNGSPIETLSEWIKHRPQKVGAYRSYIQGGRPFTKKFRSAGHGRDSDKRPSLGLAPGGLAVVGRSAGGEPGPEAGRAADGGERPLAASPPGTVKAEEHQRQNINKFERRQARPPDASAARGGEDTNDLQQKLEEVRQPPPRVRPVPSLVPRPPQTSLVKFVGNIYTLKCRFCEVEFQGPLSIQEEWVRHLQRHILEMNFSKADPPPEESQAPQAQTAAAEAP
T1 sequence (Q96SW2 whole entry, the tested form may be a part): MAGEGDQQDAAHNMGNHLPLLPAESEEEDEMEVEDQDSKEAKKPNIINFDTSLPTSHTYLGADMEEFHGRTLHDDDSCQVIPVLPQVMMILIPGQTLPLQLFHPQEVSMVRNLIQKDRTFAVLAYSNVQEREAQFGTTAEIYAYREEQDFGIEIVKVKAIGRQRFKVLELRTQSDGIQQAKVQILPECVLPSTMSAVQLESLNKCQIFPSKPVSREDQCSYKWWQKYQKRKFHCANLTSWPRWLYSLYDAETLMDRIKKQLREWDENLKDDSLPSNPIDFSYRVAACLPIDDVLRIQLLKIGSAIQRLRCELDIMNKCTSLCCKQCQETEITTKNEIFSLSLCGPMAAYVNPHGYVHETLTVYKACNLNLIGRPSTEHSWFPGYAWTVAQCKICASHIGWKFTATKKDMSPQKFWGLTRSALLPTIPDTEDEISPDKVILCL
T1 sequence (Q16531 whole entry partner, the tested form may be a part): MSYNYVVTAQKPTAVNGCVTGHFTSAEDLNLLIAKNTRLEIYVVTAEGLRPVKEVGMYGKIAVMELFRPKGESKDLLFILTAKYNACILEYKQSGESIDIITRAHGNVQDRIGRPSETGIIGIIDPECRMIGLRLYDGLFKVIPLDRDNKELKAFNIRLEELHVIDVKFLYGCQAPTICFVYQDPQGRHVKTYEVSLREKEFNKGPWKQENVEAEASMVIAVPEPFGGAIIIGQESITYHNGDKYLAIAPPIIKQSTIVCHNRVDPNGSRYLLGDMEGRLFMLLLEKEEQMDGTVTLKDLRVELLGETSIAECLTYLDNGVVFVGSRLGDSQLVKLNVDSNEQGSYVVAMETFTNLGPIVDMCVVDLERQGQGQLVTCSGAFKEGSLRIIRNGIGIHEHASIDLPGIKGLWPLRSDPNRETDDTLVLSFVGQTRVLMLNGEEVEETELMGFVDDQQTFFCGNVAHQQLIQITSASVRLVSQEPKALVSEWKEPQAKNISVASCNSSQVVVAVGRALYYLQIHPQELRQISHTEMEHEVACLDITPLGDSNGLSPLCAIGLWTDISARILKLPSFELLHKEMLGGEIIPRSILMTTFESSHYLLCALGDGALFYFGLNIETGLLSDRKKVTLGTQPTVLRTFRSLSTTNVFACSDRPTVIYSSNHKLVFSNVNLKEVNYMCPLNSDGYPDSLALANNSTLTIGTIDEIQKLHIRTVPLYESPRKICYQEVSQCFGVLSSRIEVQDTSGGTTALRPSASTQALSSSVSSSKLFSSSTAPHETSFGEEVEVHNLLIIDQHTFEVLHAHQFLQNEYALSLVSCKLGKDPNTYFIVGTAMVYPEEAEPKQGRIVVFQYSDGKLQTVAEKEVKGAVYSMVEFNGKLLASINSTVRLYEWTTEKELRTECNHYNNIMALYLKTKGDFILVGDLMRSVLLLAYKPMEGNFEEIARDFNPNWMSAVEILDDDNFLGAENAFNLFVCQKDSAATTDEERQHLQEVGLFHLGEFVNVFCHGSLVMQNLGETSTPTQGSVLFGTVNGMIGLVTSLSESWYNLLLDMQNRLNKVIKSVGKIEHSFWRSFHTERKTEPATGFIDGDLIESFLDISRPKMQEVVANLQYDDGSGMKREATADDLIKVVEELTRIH

SMILES	Dmax at 25 µM [%]	remaining activity at 25 µM [%]	DC50 [nM]
CO[C@H]1C[C@@H](CN2CC[C@@H](Cc3ccn4ncc(N5CCC(=O)NC5=O)c4c3)C[C@@H]2C)C1 [Example 303, 1-(5-(((2S,4R)-1-(((1s,3R)-3-methoxycyclobutyl)methyl)-2-methylpiperidin-4-yl)methyl)pyrazolo[1,5-a]pyridin-3-yl)dihydropyrimidine-2,4(1H,3H)-dione]	80	20	46
O=C1CCN(c2cnn3ccc(CN4CCN5CCCC[C@@H]5C4)cc23)C(=O)N1 [Example 313, (R)-1-(5-((octahydro-2H-pyrido[1,2-a]pyrazin-2-yl)methyl)pyrazolo[1,5-a]pyridin-3-yl)dihydropyrimidine-2,4(1H,3H)-dione]	70	30	85
O=C1CCN(c2cnn3ccc(CN4CCN5C(=O)COC[C@H]5C4)cc23)C(=O)N1 [Example 314, (R)-1-(5-((4-oxohexahydropyrazino[2,1-c][1,4]oxazin-8(1H)-yl)methyl)pyrazolo[1,5-a]pyridin-3-yl)dihydropyrimidine-2,4(1H,3H)-dione]	34	66	2560
O=C1CCN(c2cnn3ccc(CN4CCN5[C@@H](CCS5(=O)=O)C4)cc23)C(=O)N1 [Example 315, (S)-1-(5-((1,1-dioxidohexahydro-5H-isothiazolo[2,3-a]pyrazin-5-yl)methyl)pyrazolo[1,5-a]pyridin-3-yl)dihydropyrimidine-2,4(1H,3H)-dione]	53	47	1020
CO[C@H]1C[C@H](CN2CCN(Cc3ccn4ncc(N5CCC(=O)NC5=O)c4c3)C[C@@H]2C)C1 [Example 316, 1-(5-(((S)-4-(((1r,3S)-3-methoxycyclobutyl)methyl)-3-methylpiperazin-1-yl)methyl)pyrazolo[1,5-a]pyridin-3-yl)dihydropyrimidine-2,4(1H,3H)-dione]	83	17	61
C[C@H]1CN(Cc2ccn3ncc(N4CCC(=O)NC4=O)c3c2)CCN1CC1CC1 [Example 321, (S)-1-(5-((4-(cyclopropylmethyl)-3-methylpiperazin-1-yl)methyl)pyrazolo[1,5-a]pyridin-3-yl)dihydropyrimidine-2,4(1H,3H)-dione]	78	22	67
C[C@H]1CN(Cc2ccn3ncc(N4CCC(=O)NC4=O)c3c2)CCN1CC1CCO1 (stereo partly drawn) [Example 324, 1-(5-(((3S)-3-methyl-4-(oxetan-2-ylmethyl)piperazin-1-yl)methyl)pyrazolo[1,5-a]pyridin-3-yl)dihydropyrimidine-2,4(1H,3H)-dione]	72	28	108
C[C@H]1CN(Cc2ccn3ncc(N4CCC(=O)NC4=O)c3c2)CCN1CC1CC2(COC2)C1 [Example 325, (S)-1-(5-((4-((2-oxaspiro[3.3]heptan-6-yl)methyl)-3-methylpiperazin-1-yl)methyl)pyrazolo[1,5-a]pyridin-3-yl)dihydropyrimidine-2,4(1H,3H)-dione]	82	18	47
C[C@H]1CN(Cc2ccn3ncc(N4CCC(=O)NC4=O)c3c2)CCN1CC1CC2(C1)CC(F)(F)C2 [Example 326, (S)-1-(5-((4-((6,6-difluorospiro[3.3]heptan-2-yl)methyl)-3-methylpiperazin-1-yl)methyl)pyrazolo[1,5-a]pyridin-3-yl)dihydropyrimidine-2,4(1H,3H)-dione]	87	13	49
C[C@H]1CN(Cc2ccn3ncc(N4CCC(=O)NC4=O)c3c2)CCN1CC(F)F [Example 327, (S)-1-(5-((4-(2,2-difluoroethyl)-3-methylpiperazin-1-yl)methyl)pyrazolo[1,5-a]pyridin-3-yl)dihydropyrimidine-2,4(1H,3H)-dione]	54	46	653
COCC(F)(F)CN1CCN(Cc2ccn3ncc(N4CCC(=O)NC4=O)c3c2)C[C@@H]1C [Example 328, (S)-1-(5-((4-(2,2-difluoro-3-methoxypropyl)-3-methylpiperazin-1-yl)methyl)pyrazolo[1,5-a]pyridin-3-yl)dihydropyrimidine-2,4(1H,3H)-dione]	52	48	338

Stronger by DC50, values ahead:

Dmax at 25 µM [%]	remaining activity at 25 µM [%]	DC50 [nM]	SMILES
86	14	2	O=C1CCN(c2cnn3ccc(CC4CCN(C[C@H]5C[C@@H](F)[C@@H](F)C5)CC4)cc23)C(=O)N1 [Example 301, 1-(5-((1-(((1r,3R,4S)-3,4-difluorocyclopentyl)methyl)piperidin-4-yl)methyl)pyrazolo[1,5-a]pyridin-3-yl)dihydropyrimidine-2,4(1H,3H)-dione]
84	16	42	CO[C@H]1C[C@H](CN2CC[C@@H](Cc3ccn4ncc(N5CCC(=O)NC5=O)c4c3)C[C@@H]2C)C1 [Example 302, 1-(5-(((2S,4R)-1-(((1r,3S)-3-methoxycyclobutyl)methyl)-2-methylpiperidin-4-yl)methyl)pyrazolo[1,5-a]pyridin-3-yl)dihydropyrimidine-2,4(1H,3H)-dione]
87	13	2	C[C@H]1C[C@H](Cc2ccn3ncc(N4CCC(=O)NC4=O)c3c2)CCN1C[C@H]1C[C@@H](F)[C@@H](F)C1 [Example 304, 1-(5-(((2S,4R)-1-(((1r,3R,4S)-3,4-difluorocyclopentyl)methyl)-2-methylpiperidin-4-yl)methyl)pyrazolo[1,5-a]pyridin-3-yl)dihydropyrimidine-2,4(1H,3H)-dione]
85	15	2	C[C@H]1C[C@H](Cc2ccn3ncc(N4CCC(=O)NC4=O)c3c2)CCN1C[C@H]1CC[C@H](C(F)(F)F)CC1 [Example 305, 1-(5-(((2S,4R)-2-methyl-1-(((1r,4S)-4-(trifluoromethyl)cyclohexyl)methyl)piperidin-4-yl)methyl)pyrazolo[1,5-a]pyridin-3-yl)dihydropyrimidine-2,4(1H,3H)-dione]
84	16	8	C[C@H]1C[C@H](Cc2ccn3ncc(N4CCC(=O)NC4=O)c3c2)CCN1C[C@@H]1CCC(F)(F)C1 [Example 306, 1-(5-(((2S,4R)-1-(((R)-3,3-difluorocyclopentyl)methyl)-2-methylpiperidin-4-yl)methyl)pyrazolo[1,5-a]pyridin-3-yl)dihydropyrimidine-2,4(1H,3H)-dione]
84	16	6	C[C@H]1C[C@H](Cc2ccn3ncc(N4CCC(=O)NC4=O)c3c2)CCN1C[C@H]1CCC(F)(F)C1 [Example 307, 1-(5-(((2S,4R)-1-(((S)-3,3-difluorocyclopentyl)methyl)-2-methylpiperidin-4-yl)methyl)pyrazolo[1,5-a]pyridin-3-yl)dihydropyrimidine-2,4(1H,3H)-dione]
80	20	31	CO[C@H]1C[C@@H](CN2CCN(Cc3ccn4ncc(N5CCC(=O)NC5=O)c4c3)C[C@@H]2C)C1 [Example 317, 1-(5-(((S)-4-(((1s,3R)-3-methoxycyclobutyl)methyl)-3-methylpiperazin-1-yl)methyl)pyrazolo[1,5-a]pyridin-3-yl)dihydropyrimidine-2,4(1H,3H)-dione]
87	13	10	C[C@H]1CN(Cc2ccn3ncc(N4CCC(=O)NC4=O)c3c2)CCN1C[C@H]1C[C@@H](F)[C@@H](F)C1 [Example 318, 1-(5-(((S)-4-(((1r,3R,4S)-3,4-difluorocyclopentyl)methyl)-3-methylpiperazin-1-yl)methyl)pyrazolo[1,5-a]pyridin-3-yl)dihydropyrimidine-2,4(1H,3H)-dione]
78	21	4	C[C@H]1CN(Cc2ccn3ncc(N4CCC(=O)NC4=O)c3c2)CCN1C[C@@H]1CCC(F)(F)C1 [Example 319, 1-(5-(((S)-4-(((R)-3,3-difluorocyclopentyl)methyl)-3-methylpiperazin-1-yl)methyl)pyrazolo[1,5-a]pyridin-3-yl)dihydropyrimidine-2,4(1H,3H)-dione]
78	21	18	C[C@H]1CN(Cc2ccn3ncc(N4CCC(=O)NC4=O)c3c2)CCN1C[C@H]1CCC(F)(F)C1 [Example 320, 1-(5-(((S)-4-(((S)-3,3-difluorocyclopentyl)methyl)-3-methylpiperazin-1-yl)methyl)pyrazolo[1,5-a]pyridin-3-yl)dihydropyrimidine-2,4(1H,3H)-dione]
86	14	31	C[C@H]1CN(Cc2ccn3ncc(N4CCC(=O)NC4=O)c3c2)CCN1CC1(C)CCC1 [Example 322, (S)-1-(5-((3-methyl-4-((1-methylcyclobutyl)methyl)piperazin-1-yl)methyl)pyrazolo[1,5-a]pyridin-3-yl)dihydropyrimidine-2,4(1H,3H)-dione]
83	17	4	C[C@H]1CN(Cc2ccn3ncc(N4CCC(=O)NC4=O)c3c2)CCN1C[C@H]1CC[C@H](C(F)(F)F)CC1 [Example 323, 1-(5-(((S)-3-methyl-4-(((1r,4S)-4-(trifluoromethyl)cyclohexyl)methyl)piperazin-1-yl)methyl)pyrazolo[1,5-a]pyridin-3-yl)dihydropyrimidine-2,4(1H,3H)-dione]

Reference: patent US11787785B2 (NOVARTIS AG, priority 2021, dated 2023)
